Test results taken from patent US9725445B2, “Cycloalkyl nitrile pyrazolo pyridones as Janus kinase inhibitors” (Merck Sharp & Dohme Corp., priority 2013, dated 2017).
Where two headings read alike, the source gives them in different places.

How the values were obtained:
JAK1 = JAK1 (Homo sapiens (Human), UniProt P23458); test: Jak biochemical HTRF assay, JAK1; details: recombinant GST-tagged catalytic domain
JAK2 = JAK2 (Homo sapiens (Human), UniProt O60674); test: Jak biochemical HTRF assay, JAK2; details: recombinant GST-tagged catalytic domain
[1] = HTRF biochemical assay, read-out: JAK1 IC50
[2] = HTRF biochemical assay, read-out: JAK2 IC50
[3] = JAK1 IC50, HTRF biochemical assay
[4] = JAK2 IC50, HTRF biochemical assay

Chain of JAK1 (P23458 875-1153): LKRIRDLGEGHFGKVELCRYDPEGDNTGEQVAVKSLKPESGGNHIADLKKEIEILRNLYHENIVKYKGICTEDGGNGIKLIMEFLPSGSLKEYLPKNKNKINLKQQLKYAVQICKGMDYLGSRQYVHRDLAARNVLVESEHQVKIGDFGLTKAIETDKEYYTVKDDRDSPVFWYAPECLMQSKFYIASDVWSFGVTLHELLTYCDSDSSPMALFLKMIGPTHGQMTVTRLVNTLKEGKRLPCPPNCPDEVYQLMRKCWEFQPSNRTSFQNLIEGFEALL
Chain of JAK2 (O60674 849-1124): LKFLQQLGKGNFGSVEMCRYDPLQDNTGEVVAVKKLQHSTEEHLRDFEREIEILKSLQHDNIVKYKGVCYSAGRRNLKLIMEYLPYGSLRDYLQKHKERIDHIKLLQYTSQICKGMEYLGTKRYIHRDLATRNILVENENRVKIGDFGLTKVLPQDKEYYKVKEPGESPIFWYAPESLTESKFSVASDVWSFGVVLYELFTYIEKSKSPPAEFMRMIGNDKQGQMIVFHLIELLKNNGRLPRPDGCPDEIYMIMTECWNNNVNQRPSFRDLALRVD

| SMILES | IC50 (JAK1; [1]) [nM] | IC50 (JAK2; [2]) [nM] | IC50 (JAK1; [3]) [nM] | IC50 (JAK2; [4]) [nM] |
| --- | --- | --- | --- | --- |
| N#C[C@H]1CCCC[C@@H]1n1nc(Nc2ccc(S(=O)(=O)N3CCCCC3)cc2)c2c(=O)[nH]ccc21 [Example 3-23, (1S,2S)-2-(4-oxo-3-{[4-(piperidin-1-ylsulfonyl)phenyl]amino}-4,5-dihydro-1H-pyrazolo[4,3-c]pyridin-1-yl)cyclohexanecarbonitrile] | 0.31 | 0.48 |  |  |
| N#C[C@H]1CCCC[C@@H]1n1nc(Nc2ccc3c(c2)CCS3(=O)=O)c2c(=O)[nH]ccc21 [Example 3-59, (1S,2S)-2-{3-[(1,1-dioxido-2,3-dihydro-1-benzothiophen-5-yl)amino]-4-oxo-4,5-dihydro-1H-pyrazolo[4,3-c]pyridin-1-yl}cyclohexanecarbonitrile] | 0.062 | 0.71 |  |  |
| N#C[C@H]1CCCC[C@@H]1n1nc(Nc2ccc(CNC(=O)c3ncccn3)cc2)c2c(=O)[nH]ccc21 [Example 3-30, N-[4-({1-[(1S,2S)-2-cyanocyclohexyl]-4-oxo-4,5-dihydro-1H-pyrazolo[4,3-c]pyridin-3-yl}amino)benzyl]pyrimidine-2-carboxamide] | 0.29 | 2 |  |  |
| N#CCC1(n2nc(Nc3ccc(C(N)C(F)F)cc3)c3c(=O)[nH]ccc32)CCCCC1 (single isomer, unassigned) [Example 9-1, (S or R)-2-(1-(3-(4-(1-Amino-2,2-difluoroethyl)phenylamino)-4-oxo-4,5-dihydro-1H-pyrazolo[4,3-c]pyridin-1-yl)cyclohexyl)acetonitrile] | 0.19 | 0.47 |  |  |
| N#C[C@H]1CCCC[C@@H]1n1nc(Nc2cccc(Cn3ccnn3)c2)c2c(=O)[nH]ccc21 [Example 3-26, (1S,2S)-2-(4-oxo-3-{[3-(1H-1,2,3-triazol-1-ylmethyl)phenyl]amino}-4,5-dihydro-1H-pyrazolo[4,3-c]pyridin-1-yl)cyclohexanecarbonitrile] | 0.1 | 0.49 |  |  |
| N#C[C@H]1CCC[C@@H]1n1nc(Nc2ccc(C(N)C(F)(F)F)cc2)c2c(=O)[nH]ccc21 (single isomer, unassigned) [Example 3-136, (1S,2S)-2-[3-({4-[(1R or 1S)-1-amino-2,2,2-trifluoroethyl]phenyl}amino)-4-oxo-4,5-dihydro-1H-pyrazolo[4,3-c]pyridin-1-yl]cyclopentanecarbonitrile] | 0.28 | 0.7 |  |  |
| COCCn1cc(-c2ccc(Nc3nn([C@H]4CCCC[C@@H]4C#N)c4cc[nH]c(=O)c34)cc2)cn1 [Example 3-145, (1S,2S)-2-[3-({4-[1-(2-methoxyethyl)-1H-pyrazol-4-yl]phenyl}amino)-4-oxo-4,5-dihydro-1H-pyrazolo[4,3-c]pyridin-1-yl]cyclohexanecarbonitrile] | 0.12 | 1.8 |  |  |
| COCC(C)(O)c1cc(Nc2nn([C@H]3CCCC[C@@H]3C#N)c3cc[nH]c(=O)c23)ccc1S(C)(=O)=O (stereo partly drawn) [Example 3-85, (1S,2S)-2-(3-{[3-(1-hydroxy-2-methoxy-1-methylethyl)-4-(methylsulfonyl)phenyl]amino}-4-oxo-4,5-dihydro-1H-pyrazolo[4,3-c]pyridin-1-yl)cyclohexanecarbonitrile] | 3 | 4.2 |  |  |
| CN(C(C)(C)C)S(=O)(=O)c1ccc(Nc2nn([C@H]3CCCC[C@@H]3C#N)c3cc[nH]c(=O)c23)cc1 [Example 3-142, N-tert-butyl-4-({1-[(1S,2S)-2-cyanocyclohexyl]-4-oxo-4,5-dihydro-1H-pyrazolo[4,3-c]pyridin-3-yl}amino)-N-methylbenzenesulfonamide] | 0.29 | 0.68 |  |  |
| CC(C)[C@@H](C)N1Cc2ccc(Nc3nn([C@H]4CCCC[C@@H]4C#N)c4cc[nH]c(=O)c34)cc2C1 [Example 3-149, (1S,2S)-2-[3-({2-[(1R)-1,2-dimethylpropyl]-2,3-dihydro-1H-isoindol-5-yl}amino)-4-oxo-4,5-dihydro-1H-pyrazolo[4,3-c]pyridin-1-yl]cyclohexanecarbonitrile] | 0.48 | 0.61 |  |  |
| N#C[C@@H]1CCC[C@H]1n1nc(Nc2ccnc(F)c2)c2c(=O)[nH]ccc21 [Example 3-93, (1R,2R)-2-{3-[(2-fluoropyridin-4-yl)amino]-4-oxo-4,5-dihydro-1H-pyrazolo[4,3-c]pyridin-1-yl}cyclopentanecarbonitrile] | 12 | 48 |  |  |
| CC(C)(C)OC(=O)N1[C@@H]2CC[C@H]1C[C@@H](c1ccc(Nc3nn([C@H]4CCCC[C@@H]4C#N)c4cc[nH]c(=O)c34)cc1)C2 (single isomer, unassigned) [Example 3-165] |  |  | 2.6 | 7.9 |
| N#C[C@H]1CCCC[C@@H]1n1nc(Nc2ccccc2)c2c(=O)[nH]ccc21 [Example 3-25, (1S,2S)-2-[4-oxo-3-(phenylamino)-4,5-dihydro-1H-pyrazolo[4,3-c]pyridin-1-yl]cyclohexanecarbonitrile] | 0.45 | 3.2 |  |  |
| CC1(C)OCC(C)(c2cccc(Nc3nn([C@H]4CCCC[C@@H]4C#N)c4cc[nH]c(=O)c34)c2)O1 (stereo partly drawn) [Example 3-38, (1S,2S)-2-{4-Oxo-3-[3-(2,2,4-trimethyl-[1,3]dioxolan-4-yl)-phenylamino]-4,5-dihydro-pyrazolo[4,3-c]pyridin-1-yl}-cyclohexanecarbonitrile] | 5 | 16 |  |  |
| CC(C)(C)OC(=O)N1[C@@H]2CC[C@H]1C[C@H](c1ccc(Nc3nn([C@H]4CCCC[C@@H]4C#N)c4cc[nH]c(=O)c34)cc1)C2 (single isomer, unassigned) [Example 3-166] |  |  | 0.96 | 6.5 |

Now from value to compound, other results behind:

| IC50 (JAK1; [1]) [nM] | IC50 (JAK2; [2]) [nM] | SMILES | IC50 (JAK1; [3]) [nM] | IC50 (JAK2; [4]) [nM] |
| --- | --- | --- | --- | --- |
| 0.06 | 0.15 | Cc1cc(Nc2nn([C@H]3CCCC[C@@H]3C#N)c3cc[nH]c(=O)c23)ccc1C(C(C)C)n1ccnn1 (single isomer, unassigned) [Example 15-38, (1S,2S)-2-[3-({3-methyl-4-[(1R or 1S)-2-methyl-1-(1H-1,2,3-triazol-1-yl)propyl]phenyl}amino)-4-oxo-4,5-dihydro-1H-pyrazolo[4,3-c]pyridin-1-yl]cyclohexanecarbonitrile] |  |  |
| 0.36 | 0.32 | N#C[C@H]1CCCC[C@@H]1n1nc(Nc2ccc(C3(N)CCC3)cc2)c2c(=O)[nH]ccc21 [Example 12-2, (1S,2S)-2-(3-((4-(1-aminocyclobutyl)phenyl)amino)-4-oxo-4,5-dihydro-1H-pyrazolo[4,3-c]pyridin-1-yl)cyclohexanecarbonitrile] |  |  |
| 0.26 | 1.2 | Cc1cc(Nc2nn([C@@H]3CCCCC[C@H]3C#N)c3cc[nH]c(=O)c23)ccc1C(O)C(F)(F)F (single isomer, unassigned) [Example 15-68, (1R,2R or 1S,2S)-2-[3-({3-methyl-4-[(1R or 1S)-2,2,2-trifluoro-1-hydroxyethyl]phenyl}amino)-4-oxo-4,5-dihydro-1H-pyrazolo[4,3-c]pyridin-1-yl]cycloheptanecarbonitrile] |  |  |
| 0.17 | 0.17 | Cc1cc(Nc2nn([C@H]3CCCC[C@@H]3C#N)c3cc[nH]c(=O)c23)ccc1C(C)(C)n1ccnn1 [Example 15-33, (1S,2S)-2-[3-({3-methyl-4-[1-methyl-1-(1H-1,2,3-triazol-1-yl)ethyl]phenyl}amino)-4-oxo-4,5-dihydro-1H-pyrazolo[4,3-c]pyridin-1-yl]cyclohexanecarbonitrile] |  |  |
